The results in this text go back to publication PMC6987120, “Structural insights into ATP hydrolysis by the MoxR ATPase RavA and the LdcI-RavA cage-like complex” (Communications Biology, 2020).

One assay has as its target T1, RavA (Escherichia coli, UniProt P31473).
T1 construct: homohexamer (6 copies), open spiral and C2-symmetric closed ring; site at the interface of adjacent monomers
Nature of the assay: cryo-EM, […] and […] A maps with flexible fitting. In kind it is binding. The note with it: 1 mM ADP; intersubunit site; spiral with five ADP, closed ring with four ADP per hexamer.

The target in assay [1] is T2, LdcI–RavA complex (Escherichia coli, UniProt P31473).
T2 construct: purified RavA and LdcI mixed in vitro; LdcI expressed in a ppGpp-null E. coli MG1655 host; with Inducible lysine decarboxylase
Put plainly: cryo-EM, […] and […] A maps with flexible fitting. In kind it is binding. The note with it: 2 mM ADP, 10 mM MgCl2, 0.1 mM PLP, pH 7.9; low local resolution of RavA.

Assay [2] addresses T2, LdcI–RavA complex. Nature of the assay: ATPase assay, inorganic phosphate by Fiske and Subbarow. The settings on record: 2 mM ATP, 10 mM MgCl2, 50 mM MES/Tris pH 5-9, 25 °C; three-fold molar excess of LdcI. It is filed as biochemical.

T2 sequence (P31473 whole entry): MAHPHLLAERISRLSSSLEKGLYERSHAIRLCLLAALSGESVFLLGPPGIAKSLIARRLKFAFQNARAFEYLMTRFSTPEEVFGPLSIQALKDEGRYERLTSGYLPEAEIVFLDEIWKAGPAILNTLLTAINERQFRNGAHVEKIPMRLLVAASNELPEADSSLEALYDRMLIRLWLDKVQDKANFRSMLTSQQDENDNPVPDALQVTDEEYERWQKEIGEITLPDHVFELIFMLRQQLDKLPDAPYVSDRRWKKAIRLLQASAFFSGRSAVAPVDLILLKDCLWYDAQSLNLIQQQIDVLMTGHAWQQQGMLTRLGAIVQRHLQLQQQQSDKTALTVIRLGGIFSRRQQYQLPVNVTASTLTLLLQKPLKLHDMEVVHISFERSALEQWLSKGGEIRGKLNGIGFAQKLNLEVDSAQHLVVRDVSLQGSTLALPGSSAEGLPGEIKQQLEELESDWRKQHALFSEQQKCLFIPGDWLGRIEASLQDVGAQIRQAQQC
T2 sequence (P0A9H3 whole entry partner): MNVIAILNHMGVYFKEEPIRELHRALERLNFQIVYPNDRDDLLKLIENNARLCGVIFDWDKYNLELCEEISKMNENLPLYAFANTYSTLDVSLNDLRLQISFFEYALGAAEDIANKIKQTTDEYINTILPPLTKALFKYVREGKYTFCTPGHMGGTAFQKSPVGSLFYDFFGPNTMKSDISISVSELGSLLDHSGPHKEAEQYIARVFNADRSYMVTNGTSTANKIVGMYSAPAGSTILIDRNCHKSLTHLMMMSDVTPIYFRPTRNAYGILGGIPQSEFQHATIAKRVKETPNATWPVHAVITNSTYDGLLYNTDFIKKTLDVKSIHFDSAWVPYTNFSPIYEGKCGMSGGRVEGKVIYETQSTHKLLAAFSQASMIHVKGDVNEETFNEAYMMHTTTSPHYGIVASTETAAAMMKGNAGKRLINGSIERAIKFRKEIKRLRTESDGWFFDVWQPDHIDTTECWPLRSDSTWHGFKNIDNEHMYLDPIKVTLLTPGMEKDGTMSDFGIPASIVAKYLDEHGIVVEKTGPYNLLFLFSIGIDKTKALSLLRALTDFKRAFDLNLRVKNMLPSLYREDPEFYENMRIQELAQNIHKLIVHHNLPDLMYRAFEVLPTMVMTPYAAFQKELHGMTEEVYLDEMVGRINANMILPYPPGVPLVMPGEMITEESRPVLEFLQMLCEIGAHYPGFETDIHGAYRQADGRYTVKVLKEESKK
T1 sequence (P31473 whole entry): as the sequence (P31473 whole entry) above

For the compound `Nc1ncnc2c1ncn2[C@@H]1O[C@H](COP(=O)(O)OP(=O)(O)O)[C@@H](O)[C@H]1O` [ADP], at RavA, the “cryo-EM, 5.96 and 6.94 A maps with flexible fitting” value is “The map contains densities attributed to five ADP molecules bound to the interface”. Further, on LdcI–RavA complex [1], the “cryo-EM, 7.6 and 7.8 A maps with flexible fitting” value is “Cryo-EM maps of the two classes of the LdcI–RavA complex in ADP-bound state”. As to `Nc1ncnc2c1ncn2[C@@H]1O[C@H](COP(=O)(O)OP(=O)(O)OP(=O)(O)O)[C@@H](O)[C@H]1O` [ATP], the “ATPase assay, inorganic phosphate by Fiske and Subbarow” value on LdcI–RavA complex [2] was “RavA is still able to efficiently hydrolyse ATP in the LdcI–RavA cage”.
